The text below walks through data of US10548319B2, “Compositions and methods for synthetic amphiphile-induced changes in plant root morphology” (The Curators of the University of Missouri, priority 2014, dated 2020).

“And” between values parts separate entries of the source, which are not always exact repeats. Equal values may be shown once. Read-outs that look alike come from different tables or passages of the source. * marks the point of attachment. (CH3(CH2)17)2NCOCH2OCH2CO = CCCCCCCCCCCCCCCCCCN(CCCCCCCCCCCCCCCCCC)C(=O)COCC(=O)*; (C12H25)2NCOCH2CH2CO = CCCCCCCCCCCCN(CCCCCCCCCCCC)C(=O)CCC(=O)*; O(CH2)6CH3 = CCCCCCCO*; OC7H15 = CCCCCCCO*

This experiment deals with A. thaliana (Col-0) plant. In kind it is in vivo, Arabidopsis thaliana. The conditions noted are these: for Lateral root density with increasing concentration: 0 μM to 50 μM, FIG. 7; for Change in root morphology: lariat ether 20 μM; for Decrease in primary root length: vs PNS. From the text:
The effect treating a plant with a composition comprising a synthetic amphiphile on root morphology or other physical characteristics or attributes can be quantitated. For example, a change in primary root length can be determined by measuring the difference, if any, in primary root length of a plant treated with the composition compared to the average of a control sample of plants of the same type grown under identical conditions in the absence of the composition. A change in lateral root density can be determined by comparing the lateral root density of a plant treated with the composition to the average lateral root density of a sample grown under identical conditions in the absence of the composition. Lateral root density can be determined by dividing the number of lateral roots by the length of the primary root. In certain embodiments for any quantitated characteristic or attribute, the average value of the control is the average of a statistically significant population of control plants. For example, in certain illustrative embodiments disclosed herein, three trials of about 20 plants each were used to determine the average of the control.
Illustrative of certain embodiments, approximately 60 plants were grown on PNS media (no additives) and root lengths and the number of lateral roots were recorded for each. The data points were averaged to obtain the following baseline values: primary root length=40.4±3.8 mm and number of lateral roots=6.1±0.8, respectively. The lateral root density was obtained by dividing the number of lateral roots by the length (in mm) of the primary root. The control value was (6.1/[…]=) 0.15.
Test compounds were added to the growth medium as 0.2% by volume DMSO. […]
To make 500 mL PN media, 485 mL doubly distilled (“dd”) H2O was first added to an autoclave beaker. The following salts and nutrients were added to a beaker and mixed well: 5 mL of 250 mM of KPO4 (pH 5.5), 2.5 mL of 1M KNO3, 1 mL of 1M MgSO4, 1 mL of 1M Ca(NO3)2, 0.5 mL of Ferric EDTA (1000× or 49 mM) and 0.5 mL of Micronutrients (1000×). In a 1 L autoclaved bottle, 0.6% (3 g) of bacteriological agar was added, followed by 500 mL solution prepared above. The media was autoclaved using the Liquid-30 program.
PNS plates were used for plating sterile Arabidopsis thaliana (Columbia-0) seeds. A sterile stock of PNS agar was maintained. Sterile sucrose was added to PN media to make PNS media. To make PNS media containing 0.5% sucrose, 5 mL of 50% sucrose (sterile filtered) was added to 500 mL of PN agar and mixed well.
The stored PNS media was liquefied using a water bath and allowed to cool to 55° C. The type of plates, compounds, and concentrations to be used were confirmed while the media cooled. The plates were labeled on the cover and the bottom with all the relevant information. 50 mL sterile centrifuge tubes were used to measure 29,940 μL (29.94 mL) PNS media. A fresh sterile 50 mL tube was used for each plate. The desired amount and concentration of compound was added to the PNS media, mixed by inverting the tube and poured in the plate. Total volume of media and compound in each plate was kept constant at 30 mL. A maximum of 60 μL (0.2% by volume) compound was added per plate. For example: 60 μL of 25 mM compound was added to 29.94 mL PNS media to get final concentration of 50 μM compound in PNS media. Plates were incubated at room temperature for 2 hours before plating seeds on them.
Hands and bench area were washed thoroughly before beginning. Sterilizing solution was prepared in a sterile 15 mL centrifuge tube, by mixing 5 mL of 30% bleach and 5 μL of 10% Triton X-100. A. thaliana Col-0 seeds were added to sterile 1.5 mL micro-centrifuge tube. 500 μL of sterilizing solution (30% bleach+0.01% Triton X-100) was added to the seeds, vortexed for 3 seconds and incubated at room temperature for 8 minutes. After 8 minutes, bleach was removed and 1 mL autoclaved MilliQ water was added. […]

The mark [1] stands for this setting: Table 2, 50 μM in PNS, no unit in table (method: millimeters).
The mark [2] stands for this setting: Table 2, 20 μM in PNS, no unit in table (method: millimeters).
[3] abbreviates: 100 nM in PNS, positive control.

“(C12H25)2NCOCH2CH2CO-GGGPSGS-OC7H15 ({(C12H25)2NCOCH2CH2CO}-GGGPSGS-OC7H15; SMILES CCCCCCCCCCCCN(CCCCCCCCCCCC)C(=O)CCC(=O)NCC(=O)NCC(=O)NCC(=O)N1CCC[C@H]1C(=O)N[C@@H](CO)C(=O)NCC(=O)N[C@@H](CO)C(=O)OCCCCCCC) [Compound 15]”: where the note is “SAT 50 μM”, the “Effect on number of lateral roots relative to control” value was “does not show such a dramatic effect”; the “Effect on primary root length relative to control” value is “dramatic reduction in primary root length”; the “Overall effect on growth / root morphology relative to control” value is “shorter primary root and new lateral roots”. Besides, for the setting “SAT 50 μM in PNS”, the Lateral root density was 0.51 ± 0.03, the “Number of lateral roots” value is given as 4.5 ± 0.4 and the Primary root length came out at 9.0 ± 1.2 mm.

For the compound `CCCCCCCCCCCCCC(=O)N1CCOCCOCCN(C(=O)CCCCCCCCCCCCC)CCOCCOCC1` [C14 lariat ether amide], where the note is “Table 2, 50 μM”, the Lateral root density came to 0.21, the Number lateral roots amounted to 8.6 and the “Percent decrease 1° root” value was found to be 0%. Also, the Primary root length under setting [1] turned out to be 41.9 mm.

For the compound `CCCCCCCCCCN1CCOCCOCCN(CCCCCCCCCC)CCOCCOCC1` [C10 lariat ether, N,N′-Didecyl-4,13-diaza-18-crown-6], the “Lateral root density with increasing concentration” value is “Linear increase in lateral root density” and the “Change in root morphology” value is listed as “significant change in root morphology”. In addition, where the note is “Table 2, 20 μM”, the Lateral root density came to 1.14, the Number lateral roots was 4 and the “Percent decrease 1° root” value is given as 91.4%. The compound further gave a Primary root length under setting [2] of 3.5 mm. Where the note is “Table 2, 50 μM”, the Lateral root density is 1.75, the Number lateral roots was found to be 3.5 and the “Percent decrease 1° root” value amounted to 95.1%. In addition, under setting [1], the Primary root length amounted to 2 mm.

`CCCCCCCCCCCCN1CCOCCOCCN(CCCCCCCCCCCC)CCOCCOCC1` [C12 lariat ether]: under “Table 2, 20 μM”, the Lateral root density is 0.17, the Number lateral roots amounted to 6 and the “Percent decrease 1° root” value was determined as 1.3%. For the same compound, under setting [2], the Primary root length turned out to be 40.1 mm. Besides, where the note is “Table 2, 50 μM”, the Lateral root density came out at 0.15, the Number lateral roots was found to be 4.9 and the “Percent decrease 1° root” value was found to be 11.5%. For the same compound, under setting [1], the Primary root length came to 35.9 mm.

Consider `CCCCCCC(=O)N1CCOCCOCCN(C(=O)CCCCCC)CCOCCOCC1` [C7 lariat ether amide], for which, under “Table 2, 20 μM”, the Lateral root density is recorded as 0.21, the Number lateral roots was determined as 4.5 and the “Percent decrease 1° root” value is on record as 45.3%. This compound came in with a Primary root length under setting [2] of 22.9 mm. Further, for the setting “Table 2, 50 μM”, the Lateral root density is on record as 0.65, the Number lateral roots was found to be 4.2 and the “Percent decrease 1° root” value is reported as 82.5%. The same compound returned a Primary root length under setting [1] of 7.3 mm.

On to `CCCCCCCCC(=O)N1CCOCCOCCN(C(=O)CCCCCCCC)CCOCCOCC1` [C9 lariat ether amide], for which, where the note is “Table 2, 20 μM”, the Lateral root density was 0.19, the Number lateral roots worked out at 1.6 and the “Percent decrease 1° root” value is 78.2%. The same compound gave a Primary root length under setting [2] of 9.2 mm. Also, for the setting “Table 2, 50 μM”, the Lateral root density is listed as 0.13, the Number lateral roots came to 2 and the “Percent decrease 1° root” value was found to be 62.6%. The Primary root length under setting [1] came to 15.7 mm.

For `CCCCCC(=O)N1CCOCCOCCN(C(=O)CCCCC)CCOCCOCC1` [C6 lariat ether amide], under “Table 2, 50 μM”, the Lateral root density was found to be 0.15, the Number lateral roots is given as 5.6 and the “Percent decrease 1° root” value was 4.9%. Besides, under setting [1], the Primary root length was 38.6 mm.

With `CCCCCCN1CCOCCOCCN(CCCCCC)CCOCCOCC1` [C6 lariat ether], for the setting “Table 2, 20 μM”, the Lateral root density was found to be 0.18, the Number lateral roots amounted to 6.6 and the “Percent decrease 1° root” value is on record as 5.9%. Besides, the Primary root length under setting [2] was determined as 38.3 mm. Moreover, where the note is “Table 2, 50 μM”, the Lateral root density stood at 0.14, the Number lateral roots was determined as 4.6 and the “Percent decrease 1° root” value turned out to be 18.8%. Moreover, under setting [1], the Primary root length amounted to 33 mm.

`CCCCCCCC(=O)N1CCOCCOCCN(C(=O)CCCCCCC)CCOCCOCC1` [C8 lariat ether amide, N,N′-Dioctanoyl-4,13-diaza-18-crown-6]: for the setting “Table 2, 50 μM”, the Lateral root density came out at 0.17, the Number lateral roots turned out to be 5.2 and the “Percent decrease 1° root” value came to 23.2%. Under setting [1], this compound returned a Primary root length of 31.2 mm.

As to `CCCCCCCCN1CCOCCOCCN(CCCCCCCC)CCOCCOCC1` [C8 lariat ether, N,N′-Di-n-octyl-4,13-diaza-18-crown-6], the “Lateral root density with increasing concentration” value is “Linear increase in lateral root density” and the “Change in root morphology” value was “significant change in root morphology”. Also, where the note is “Table 2, 20 μM”, the Lateral root density stood at 0.64, the Number lateral roots was found to be 5.1 and the “Percent decrease 1° root” value was 83.4%. Moreover, under setting [2], the Primary root length is 6.8 mm. For the setting “Table 2, 50 μM”, the Lateral root density is listed as 1.38, the Number lateral roots stood at 2.2 and the “Percent decrease 1° root” value is on record as 96.1%. This compound returned a Primary root length under setting [1] of 1.6 mm.

Take `O=C(O)COc1ccc(Cl)cc1Cl` [2,4-D, 2,4-Dichlorophenoxyacetic acid, reference compound]: under setting [3], the Lateral root density is 0.85 and 0.85 ± 0.12; the “Number of lateral roots” value amounted to 3.4±0.6; the Primary root length worked out at 3.9±0.6 mm.

With `c1ccc(CN2CCOCCOCCN(CCCCCCCCCCCCCCCCN3CCOCCOCCN(CCCCCCCCCCCCCCCCN4CCOCCOCCN(Cc5ccccc5)CCOCCOCC4)CCOCCOCC3)CCOCCOCC2)cc1` [C16 hydraphile (3)], the Primary root length runs as follows: (hydraphile 10 μM in PNS media) 23 ± 0.4 mm; (hydraphile 10 μM in PNS media, listed as compound 3) 23±0.4 mm; (hydraphile 20 μM in PNS media) 15 ± 0.5 mm; (hydraphile 20 μM in PNS media, listed as compound 3) 15±0.5 mm; (hydraphile 50 μM in PNS media) 4 ± 0.2 mm; (hydraphile 50 μM in PNS media, listed as compound 3) 4±0.2 mm. For the same compound, the “Decrease in primary root length” value runs as follows: (hydraphile 10 μM) 39%; (hydraphile 20 μM) 61%; (hydraphile 50 μM) 90%. Under “hydraphile 50 μM in PNS media”, the “Effect on growth / root development” value is listed as “inhibit the primary root development”.

For “[CH3(CH2)17]2NCOCH2OCH2CO-Gly-Gly-Gly-Pro-Gly-Gly-Gly-O(CH2)6CH3 ({(CH3(CH2)17)2NCOCH2OCH2CO}-GGGPGGG-{O(CH2)6CH3}; SMILES CCCCCCCCCCCCCCCCCCN(CCCCCCCCCCCCCCCCCC)C(=O)COCC(=O)NCC(=O)NCC(=O)NCC(=O)N1CCC[C@H]1C(=O)NCC(=O)NCC(=O)NCC(=O)OCCCCCCC) [Compound 9]”, where the note is “SAT 50 μM”, the “Effect on number of lateral roots relative to control” value is reported as “within experimental error of the PNS control” and the “Effect on primary root length relative to control” value was “within experimental error of the PNS control”. Also, under “SAT 50 μM in PNS”, the Lateral root density stood at 0.17 ± 0.02, the “Number of lateral roots” value came to 6.8 ± 1.3 and the Primary root length is listed as 40.5 ± 3.4 mm.
